Several values for one entry are separate records, joined by “and”; a condition that tells them apart may be missing. Identical values can stand only once.
Assays:
[1] = system: vaginal tissue construct; assay: microarray analysis of differential gene expression (Affymetrix Human Gene 1.0 ST arrays), tissues treated for seven days via culture medium; type: cell-based
Text: The data from the Affymetrix Human Gene 1.0 ST arrays were normalized using the Robust Multiarray Average (RMA) algorithm and a Chip Definition File (CDF) that maps the probes on the array to unique Entrez Gene identifiers. The result is a matrix in which each column corresponds to a sample. The expression values are log 2-transformed by default.
By using a fold change >1.5, an analysis of differentially expressed genes was done to identify those genes which were involved in the cornified envelope, keratinocyte differentiation, cell differentiation, epidermis development, epithelial cell differentiation, junctional proteins and signaling, immune response and innate immune response.

[2] = target: endocannabinoid receptor type 2 (CB2) (Homo sapiens, UniProt P34972); conditions: cited from earlier work
[3] = down-regulated by this fold, given without sign

Sequence of endocannabinoid receptor type 2 (CB2) (P34972 whole entry, species assumed): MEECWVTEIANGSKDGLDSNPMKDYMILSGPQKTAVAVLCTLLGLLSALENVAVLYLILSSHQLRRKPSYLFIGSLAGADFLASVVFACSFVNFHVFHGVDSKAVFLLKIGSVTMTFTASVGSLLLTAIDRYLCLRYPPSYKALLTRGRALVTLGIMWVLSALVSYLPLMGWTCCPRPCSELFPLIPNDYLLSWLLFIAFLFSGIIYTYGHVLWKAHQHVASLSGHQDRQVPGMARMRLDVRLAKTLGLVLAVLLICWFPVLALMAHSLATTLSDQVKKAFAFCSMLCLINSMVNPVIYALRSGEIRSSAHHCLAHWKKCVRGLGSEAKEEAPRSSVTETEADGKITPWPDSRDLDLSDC

## CCCC(C)(C)c1ccc2c(c1)OC(C)(C)[C@@H]1CC=C(C)C[C@@H]21 [JWH-133]
[1]
  SPRR2D Fold Change: 2.839 fold
  WFDC12 Fold Change: 5.534 fold
[1]; [3]
  CFB down-regulation: 2.167 fold
  CFH down-regulation: 1.681 fold
[1]; gene Anterior gradient homolog 2 (Xenopus laevis)
  AGR2 Fold Change: −2.5 fold
[1]; gene C-X-C motif chemokine ligand 8
  CXCL8 Expr Fold Change: −2.155 fold
[1]; gene C-X-C motif chemokine ligand 17
  CXCL17 Expr Fold Change: −1.881 fold
[1]; gene C-X-C motif chemokine receptor 2
  CXCR2 Expr Fold Change: 2.121 fold
[1]; gene CD14 molecule
  CD14 Expr Fold Change: −2.286 fold
[1]; gene CD74 molecule
  CD74 Expr Fold Change: −1.676 fold
[1]; gene CD151 molecule (Raph blood group)
  CD151 Expr Fold Change: −1.653 fold
[1]; gene CD244 molecule
  CD244 Expr Fold Change: 2.489 fold
[1]; gene Corneodesmosin
  CDSN Fold Change: 6.888 fold
[1]; gene C−C motif chemokine ligand 28
  CCL28 Expr Fold Change: −2.39 fold
[1]; gene FYN binding protein 1
  FYB1 Expr Fold Change: −2.398 fold
[1]; gene Interferon Epsilon
  IFNE Fold Change: 4.439 fold
[1]; gene Interleukin 19
  IL19 Fold Change: −2.2 fold
[1]; gene NLR family pyrin domain containing 10
  NLRP10 Fold Change: 10.11 fold
[1]; gene RNAse family
  RNAse7 Fold Change: 6.145 fold
[1]; gene T cell lymphoma invasion and metastasis 1
  TIAM1 Expr Fold Change: 2.018 fold
[1]; gene TNF alpha induced protein 8
  TNFAIP8 Expr Fold Change: −1.724 fold
[1]; gene TNF receptor superfamily member 10c
  TNFRSF10C Expr Fold Change: −2.114 fold
[1]; gene TNF receptor superfamily member 11b
  TNFRSF11B Expr Fold Change: −2.006 fold
[1]; gene Tetraspanin 1
  TSPAN1 Fold Change: −1.9 fold
[1]; gene Transglutaminase 1
  TGM1 Fold Change: 1.809 fold
[1]; gene Transglutaminase 3
  TGM3 Fold Change: 23.784 fold and 24 fold
[1]; gene Transglutaminase 5
  TGM5 Fold Change: 2.346 fold
[1]; gene Tripartite motif-containing 31
  TRIM31 Fold Change: −4.5 fold
[1]; gene V-set domain containing T cell activation inhibitor 1
  VTCN1 Expr Fold Change: −2.694 fold
[1]; gene WAP four-disulfide core domain 2
  WFDC2 Fold Change: −2.6 fold
[1]; gene WAP four-disulfide core domain 5
  WFDC5 Fold Change: 2.807 fold
[1]; gene arachidonate 12-lipoxygenase, 12R type
  ALOX12B Fold Change: 6.023 fold
[1]; gene arachidonate 12-lipoygenase
  ALOX12 Fold Change: 1.8 fold
[1]; gene arachidonate lipoxygenase 3
  ALOXE3 Fold Change: 2.881 fold
[1]; gene arginosuccinate synthetase 1
  ASS1 Fold Change: −2.4 fold
[1]; gene claudin 17
  CLDN17 Fold Change: 8.7 fold
[1]; gene coiled-coil domain containing 59
  CCDC59 Expr Fold Change: −1.956 fold
[1]; gene colony stimulating factor 2 receptor beta common subunit
  CSF2RB Expr Fold Change: 2.595 fold
[1]; gene complement factor H
  CFH Expr Fold Change: −1.681 fold
[1]; gene cornifelin
  CNFN Fold Change: 1.706 fold
[1]; gene cysteine-rich C-terminal 1
  CRCT1 Fold Change: 2.3 fold
[1]; gene dermokine
  DMKN Fold Change: 2.043 fold
[1]; gene descmocollin 3
  DCS3 Fold Change: 1.5 fold
[1]; gene desmocollin 1
  DSC1 Fold Change: 6.69 fold
[1]; gene desmocollin 2
  DSC2 Fold Change: 1.6 fold
[1]; gene desmoglein 1
  DSG1 Fold Change: 7.572 fold and 7.2 fold
[1]; gene filaggrin
  FLG Fold Change: 3.151 fold
[1]; gene filaggrin family member 2
  FLG2 Fold Change: 6.801 fold
[1]; gene glycogen synthase 2 (liver)
  GYS2 Fold Change: 3.1 fold
[1]; gene human keratinocyte proline rich protein
  KPRP Fold Change: 17.392 fold and 20.8 fold
[1]; gene interferon induced protein with tetratricopeptide repeats 5
  IFIT5 Expr Fold Change: −1.97 fold
[1]; gene interferon induced with helicase C domain 1
  IFIH1 Expr Fold Change: −2.099 fold
[1]; gene interferon regulatory factor 1
  IRF1 Expr Fold Change: −3.083 fold
[1]; gene interferon regulatory factor 9
  IRF9 Expr Fold Change: −1.62 fold
[1]; gene interleukin 1 receptor like 2
  IL1RL2 Expr Fold Change: 2.54 fold
[1]; gene interleukin 7 receptor
  IL7R Expr Fold Change: −2.062 fold
[1]; gene interleukin 18 binding protein
  IL18BP Expr Fold Change: 1.523 fold
[1]; gene interleukin 23 subunit alpha
  IL23A Expr Fold Change: 2.346 fold
[1]; gene interleukin 33
  IL33 Expr Fold Change: −3.314 fold
[1]; gene interleukin 36 alpha
  IL36A Expr Fold Change: 4.253 fold
[1]; gene interleukin 36 receptor antagonist
  IL36RN Expr Fold Change: 4.029 fold
[1]; gene kallikrein related peptidase 6
  KLK6 Fold Change: 4.063 fold
[1]; gene kallikrein related peptidase 8
  KLK8 Fold Change: 1.504 fold
[1]; gene kallikrein related peptidase 10
  KLK10 Fold Change: 2.214 fold
[1]; gene kallikrein related peptidase 12
  KLK12 Fold Change: 3.882 fold
[1]; gene kallikrein related peptidase 13
  KLK13 Fold Change: 3.278 fold
[1]; gene keratin 1
  KRT1 Fold Change: 7.122 fold and 8.7 fold
[1]; gene keratin 2
  KRT2 Fold Change: 1.764 fold
[1]; gene keratin 20
  KRT20 Fold Change: −2.992 fold
[1]; gene keratin 23
  KRT23 Fold Change: 1.631 fold
[1]; gene keratin 24
  KRT24 Fold Change: 1.699 fold
[1]; gene keratinocyte differentiation associated protein
  KRTDAP Fold Change: 9.891 fold and 10.1 fold
[1]; gene late cornified envelope 1A
  LCE1A Fold Change: 1.526 fold
[1]; gene late cornified envelope 1C
  LCE1C Fold Change: 2.292 fold
[1]; gene late cornified envelope 1F
  LCE1F Fold Change: 1.576 fold
[1]; gene late cornified envelope 2A
  LCE2A Fold Change: 4.097 fold
[1]; gene late cornified envelope 2B
  LCE2B Fold Change: 7.398 fold
[1]; gene late cornified envelope 2D
  LCE2C/LCE2D Fold Change: 10.393 fold
[1]; gene late cornified envelope 3D
  LCE3D Fold Change: 12.6 fold
[1]; gene late cornified envelope 3E
  LCE3E Fold Change: 13.5 fold
[1]; gene late cornified envelope 5A
  LCE5A Fold Change: 1.571 fold
[1]; gene lipase family member M
  LIPM Fold Change: 6.813 fold
[1]; gene lipase family member N
  LIPN Fold Change: 4.766 fold
[1]; gene lipin 1
  LIPN1 Fold Change: 3.23 fold
[1]; gene loricrin
  LOR Fold Change: 5.085 fold
[1]; gene lymphocyte antigen 6 family member G6C
  LY6G6C Expr Fold Change: 5.531 fold
[1]; gene major histocompatibility complex, class C
  HLA-C Expr Fold Change: −1.5 fold
[1]; gene major histocompatibility complex, class I, B
  HLA-B Expr Fold Change: −1.677 fold
[1]; gene major histocompatibility complex, class II, DR alpha
  HLA-DRA Expr Fold Change: −1.875 fold
[1]; gene major histocompatibility complex, class II, DR beta 6 (pseudogene)
  HLA-DRB6 Expr Fold Change: −1.5 fold
[1]; gene malic enzyme 1, NADP(+)-dependent cytosolic
  ME1 Fold Change: 2.4 fold
[1]; gene mucin like 1
  MUCL1 Fold Change: 1.4 fold
[1]; gene natural killer cell cytotoxicity receptor 3 ligand 1
  NCR3LG1 Expr Fold Change: 2.076 fold
[1]; gene nuclear factor of activated T cells 5
  NFAT5 Expr Fold Change: 1.924 fold
[1]; gene olfactomedin 4
  OLFM4 Expr Fold Change: −3.505 fold
[1]; gene pancreatic lipase-related protein 3
  PNLIPRP3 Fold Change: 1.4 fold
[1]; gene phospholipase A2 group IIF
  PLA2G2F Fold Change: 1.564 fold
[1]; gene phospholipase A2 group III
  PLA2G3 Fold Change: 1.953 fold
[1]; gene phospholipase A2 group IVD
  PLA2G4D Fold Change: 3.604 fold
[1]; gene phospholipase A2 group IVE
  PLA2G4E Fold Change: 2.225 fold
[1]; gene phospholipase A2 group X
  PLA2G10 Fold Change: −2.819 fold
[1]; gene placenta-specific 8
  PLAC8 Fold Change: −2.2 fold
[1]; gene polymeric immunoglobulin receptor
  PIGR Fold Change: −1.8 fold
[1]; gene programmed cell death 1 ligand 2
  PDCD1LG2 Expr Fold Change: −1.879 fold
[1]; gene ribosomal protein S15a
  RPS15A Expr Fold Change: −1.999 fold
[1]; gene serpin family B member 12
  SERPINB12 Fold Change: 4.409 fold and 4.3 fold
[1]; gene signal transducer and activator of transcription 4
  STAT4 Expr Fold Change: −2.315 fold
[1]; gene small proline rich protein 2G
  SPRR2G Fold Change: 7.539 fold
[1]; gene small proline rich protein 4
  SPRR4 Fold Change: 2.263 fold
[1]; gene suprabasin
  SBSN Fold Change: 3.488 fold and 3.4 fold
[1]; gene toll like receptor 3
  TLR3 Expr Fold Change: −2.566 fold
[1]; gene transient receptor potential cation channel subfamily V member 3
  TRPV3 Fold Change: 2.32 fold and 2.382 fold
[1]; gene ubiquitin like modifier activating enzyme 7
  UBA7 Expr Fold Change: −1.651 fold
[1]; gene vascular endothelial growth factor A
  VEGFA Fold Change: 1.2 fold
[1]; microRNA 23a
  mir-23 Expr Fold Change: 2.983 fold
[1]; microRNA 224
  mir-224 Expr Fold Change: 4.867 fold
[2]
  agonist type by receptor internalization: full agonist

From US11033527B2, “Non-hormonal treatment of the genitourinary syndrome of menopause” (IMMUGEN PHARMA LLC, priority 2018, dated 2021)
